# Measurements: patent US7687526B2, “Benzo-fused compounds for use in treating metabolic disorders” (Amgen Inc., priority 2006, dated 2010)
# pEC50: −log10 of the molar value.
# Target: T1, human GPR40 (Homo sapiens, UniProt O14842)
# T1 construct: expressed in transfected cells; host or cells: CHO cells
# Experiment: Cell-based aequorin assay using human GPR40
# Settings: CHO cells stably transfected with GPR40 and Aequorin; 0.01% HSA; aequorin luminescence; read-out: Relative EC50
# Method: Cell-based aequorin assays were employed to characterize the modulatory activity of compounds on the GPR40 signaling pathway. In an exemplary assay, CHO cells were stably transfected with both GPR40 and Aequorin (Euroscreen). Cells were detached from the tissue culture dish with 2 mL of trypsin (0.25% (w/v)). Trypsinization was halted with 28 mL of Hanks Buffered Salt Solution containing 20 mM Hepes (H/HBSS) and 0.01% fatty acid-free human serum albumin (HSA). Coelantrazine is added to 1 ug/mL, and the cells were incubated for 2 hours at room temperature. Compounds were dissolved in DMSO for preparation of 10 mM stock solutions. Compounds were diluted in H/HBSS containing 0.01% HSA. Serial dilutions of the test compounds were prepared to determine dose response.
# Aequorin luminescence measurements were made using an EG&G Berthold 96-well luminometer, and the response was measured over a 20 second interval after cells and compounds were mixed. The maximum relative light units was plotted to determine dose response. The EC50 (effective concentration to reach 50% maximal response) was determined from the dose response plot.
# Table 1 presents representative data (EC50 values) obtained for exemplary compounds of the invention for the relative activation of human GPR40. […]
# T1 sequence (O14842 whole entry): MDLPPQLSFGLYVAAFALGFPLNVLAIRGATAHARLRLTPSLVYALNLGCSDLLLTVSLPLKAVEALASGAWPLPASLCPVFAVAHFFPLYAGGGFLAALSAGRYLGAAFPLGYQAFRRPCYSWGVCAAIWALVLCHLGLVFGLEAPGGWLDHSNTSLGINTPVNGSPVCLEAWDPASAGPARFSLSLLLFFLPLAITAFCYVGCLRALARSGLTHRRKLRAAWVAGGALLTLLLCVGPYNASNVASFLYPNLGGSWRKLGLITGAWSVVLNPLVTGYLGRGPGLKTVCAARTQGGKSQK
row,pEC50,SMILES
1,7.00 to 8.00,"CC#CC(CC(=O)O)c1ccc(OCc2ccc3c(c2)C[C@@H](c2ccc(Cl)cc2)O3)cc1 (single isomer, unassigned) [Example 76]"
2,7.00 to 8.00,"CC#CC(CC(=O)O)c1ccc(OCc2ccc3c(c2)C[C@H](c2ccc(Cl)cc2)O3)cc1 (single isomer, unassigned) [Example 77]"
3,6.00 to 7.00,"CC1(C)CCC(C)(C)c2cc(COc3ccc([C@H](CC(=O)O)c4ncco4)cc3)ccc21 [Example 12, (S)-3-Oxazol-2-yl-3-[4-(5,5,8,8-tetramethyl-5,6,7,8-tetrahydro-naphthalen-2-ylmethoxy)-phenyl]-propionic acid]"
4,5.00 to 6.00,"CC#C[C@@H](CC(=O)O)c1ccc(OCc2ccc3c(c2)C(C)(C)CCC3(C)C)cc1 [Example 19, (S)-3-(4-((5,5,8,8-Tetramethyl-5,6,7,8-tetrahydronaphthalen-2-yl)methoxy)phenyl)hex-4-ynoic acid]"
5,5.00 to 6.00,"CC#C[C@H](CC(=O)O)c1ccc(OCc2ccc3c(c2)C(C)(C)CCC3(C)C)cc1 [Example 20, (R)-3-(4-((5,5,8,8-Tetramethyl-5,6,7,8-tetrahydronaphthalen-2-yl)methoxy)phenyl)hex-4-ynoic acid]"
6,7.00 to 8.00,"CCC1(CC)CCC(C)(C)c2ccc(COc3ccc([C@H](CC(=O)O)c4ccon4)cc3)cc21 [Example 72, (S)-3-(4-((8,8-diethyl-5,5-dimethyl-5,6,7,8-tetrahydronaphthalen-2-yl)methoxy)phenyl)-3-(isoxazol-3-yl)propanoic acid]"
7,6.00 to 8.00,"CCC1(CC)CCC(C)(C)c2ccc(COc3ccc([C@H](CC(=O)O)c4nnnn4C)cc3)cc21 [Example 73, (S)-3-(4-((8,8-diethyl-5,5-dimethyl-5,6,7,8-tetrahydronaphthalen-2-yl)methoxy)phenyl)-3-(1-methyl-1H-tetrazol-5-yl)propanoic acid]"
8,7.00 to 8.00,"CC1(C)CCC(C)(C)c2cc(COc3ccc([C@H](CC(=O)O)C4=NOCC4)cc3)ccc21 [Example 74, 3-(4,5-Dihydroisoxazol-3-yl)-3-(4-((5,5,8,8-tetramethyl-5,6,7,8-tetrahydronaphthalen-2-yl)methoxy)phenyl)propanoic acid]"
9,6.00 to 7.00,"Cn1ccnc1[C@@H](CC(=O)O)c1ccc(OCc2ccc3c(c2)CCCC3(C)C)cc1 [Example 75, (S)-3-(4-((5,5-dimethyl-5,6,7,8-tetrahydronaphthalen-2-yl)methoxy)phenyl)-3-(1-methyl-1H-imidazol-2-yl)propanoic acid]"
10,6.00 to 7.00,"CC/C(C)=C/[C@@H](CC(=O)O)c1ccc(OCc2ccc3c(c2)C(C)(C)CCC3(C)C)cc1 [Example 78, (R,E)-5-Methyl-3-(4-((5,5,8,8-tetramethyl-5,6,7,8-tetrahydronaphthalen-2-yl)methoxy)phenyl)hept-4-enoic acid]"
11,5.00 to 6.00,"CC/C(C)=C/[C@H](CC(=O)O)c1ccc(OCc2ccc3c(c2)C(C)(C)CCC3(C)C)cc1 [Example 79, (S,E)-5-Methyl-3-(4-((5,5,8,8-tetramethyl-5,6,7,8-tetrahydronaphthalen-2-yl)methoxy)phenyl)hept-4-enoic acid]"
12,6.00 to 7.00,"Cn1ccnc1[C@@H](CC(=O)O)c1ccc(OCc2ccc3c(c2)C(C)(C)CC3(C)C)cc1 [Example 80, (S)-3-(1-Methyl-1H-imidazol-2-yl)-3-(4-((1,1,3,3-tetramethyl-2,3-dihydro-1H-inden-5-yl)methoxy)phenyl)propanoic acid]"
13,5.00 to 6.00,"Cn1ccnc1[C@@H](CC(=O)O)c1ccc(OCc2ccc3c(c2)C(=O)CCC3(C)C)cc1 [Example 81, (S)-3-(4-((5,5-Dimethyl-8-oxo-5,6,7,8-tetrahydronaphthalen-2-yl)methoxy)phenyl)-3-(1-methyl-1H-imidazol-2-yl)propanoic acid]"
14,6.00 to 7.00,"Cn1ccnc1[C@@H](CC(=O)O)c1ccc(OCc2ccc3c(c2)OC(F)(F)O3)cc1 [Example 82, (S)-3-(4-((2,2-difluorobenzo[d][1,3]dioxol-5-yl)methoxy)phenyl)-3-(1-methyl-1H-imidazol-2-yl)propanoic acid]"
15,5.00 to 6.00,"CC1(C)CCC(C)(C)c2cc(COc3ccc([C@@H](/C=C/Cc4ccccc4)CC(=O)O)cc3)ccc21 [Example 83, (R,E)-6-Phenyl-3-(4-((5,5,8,8-tetramethyl-5,6,7,8-tetrahydronaphthalen-2-yl)methoxy)phenyl)hex-4-enoic acid]"
16,5.00 to 6.00,"CC1(C)CCC(C)(C)c2cc(COc3ccc([C@H](/C=C/Cc4ccccc4)CC(=O)O)cc3)ccc21 [Example 84, (S,E)-6-Phenyl-3-(4-((5,5,8,8-tetramethyl-5,6,7,8-tetrahydronaphthalen-2-yl)methoxy)phenyl)hex-4-enoic acid]"
17,5.00 to 6.00,"Cn1ccnc1[C@@H](CC(=O)O)c1ccc(OCc2ccc3c(c2)OCCO3)cc1 [Example 86, (S)-3-(4-((2,3-Dihydrobenzo[b][1,4]dioxin-6-yl)methoxy)phenyl)-3-(1-methyl-1H-imidazol-2-yl)propanoic acid]"

# System: Human islets
# Experiment: Insulin secretion assay
# Type: cell-based
# Settings: human islet cells, KRBH with 11.2 mM glucose, insulin measured by SPA; read-out: EC50 of stimulated insulin secretion from islet cells
# Method: Human islets were isolated from cadaveric donors. Islets were treated with trypsin (0.25% (w/v) and cells were seeded in 96-well plates containing 3,000 cells per well. Cells were cultured in Roswell Park Memorial Institute (RMPI) media containing 10% fetal bovine serum.
# For determination of insulin secretion, media was removed from islet cells and replaced with Krebs-Ringer bicarbonate buffer containing 10 mM HEPES (KRBH) and 2 mM glucose. After one hour incubation, media was replaced with KRBH containing 11.2 mM glucose and test compounds. Insulin released into the medium from the islet cells was measured using scintillation proximity assay (SPA).
row,pEC50,SMILES
1,> 6.00,"CC1(C)CCC(C)(C)c2cc(COc3ccc(C(CC(=O)O)c4cncnc4)cc3)ccc21 (racemic) [Example 9, (R/S)-3-Pyrimidin-5-yl-3-[4-(5,5,8,8-tetramethyl-5,6,7,8-tetrahydro-naphthalen-2-ylmethoxy)-phenyl]-propionic acid]"
2,> 6.00,"Cn1cncc1[C@@H](CC(=O)O)c1ccc(OCc2ccc3c(c2)C(C)(C)CCC3(C)C)cc1 [Example 4, (S)-3-(1-methyl-1H-imidazol-5-yl)-3-(4-((5,5,8,8-tetramethyl-5,6,7,8-tetrahydronaphthalen-2-yl)methoxy)phenyl)propanoic acid]"
